According to patent US6337417B1, “N-phenyltetrahydrophthalamic acid derivatives, methods of producing same, and herbicides containing same as effective components” (Central Glass Co., Ltd., priority 1994, dated 2002):

Legend:
Assay type in all cases: in vivo
Design in all cases: key: 5: completely killed; 4: seriously injured; 3: considerably injured; 2: somewhat injured; 1: slightly injured; 0: not injured (normally grown)
broad-leaved weeds = assay: Experiment 4 flooded soil treatment: broad-leaved weeds; conditions: 4 weeks after treatment
Method in brief: (§1)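 Clay-loam paddy soil was sown with mixed weed seeds, planted with 2–3-leaf rice seedlings at 2 cm depth and flooded to 3 cm. After 3 days, at early barnyardgrass germination, a set amount of compound as a diluted aqueous solution was dropped into the water. Herbicidal effect and rice injury were scored 4 weeks after treatment under glass.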

[1] = system: onamomi (heartleaf cocklebur, Xanthium strumarium); assay: Experiment 6 foliage treatment: onamomi; conditions: foliage spray of wettable powder suspension, evaluated 4 weeks after treatment
Procedure: (§2) Upon seedling stage (two- or three-leaved stage) of ichibi (velvetleaf, Abutilon theophrasti), onamomi (heartleaf cocklebur, Xanthium strumarium) (4 L stage), noasagao (blue morningglory, Ipomoea indica) and ooinutade (pale smartweed, Persicaria lapathifolia) which were grown on a cultivated soil put in pots of 1/8850 ares, a selected compound obtained in a manner analogous to Example 11, in suspended wettable powder, was sprayed to each plant. After that, the pots were kept in a glass chamber to allow each plant to grow, and after the lapse of 4 weeks from the treatment with the selected compounds the herbicidal effects were evaluated. The evaluation of the herbicidal effects was similarly conducted as that of Experiment 1.

[2] = system: hotarui (bulrush, Scirpus juncoides); assay: Experiment 4 flooded soil treatment: hotarui; conditions: 4 weeks after treatment
Method in brief: as §1

[3] = system: ooinutade (pale smartweed, Persicaria lapathifolia); assay: Experiment 6 foliage treatment: ooinutade; conditions: foliage spray of wettable powder suspension, evaluated 4 weeks after treatment
Procedure: as §2

[4] = system: aobiyu (slender amaranth, Amaranthus viridis); assay: Experiment 5 foliage treatment: aobiyu; conditions: foliage spray of wettable powder suspension, evaluated 4 weeks after treatment
Method in brief: (§3)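 Compounds sprayed as wettable powder suspension onto pot-grown plants at the two- to three-leaf stage. Plants kept in a glasshouse and herbicidal effect scored 4 weeks after treatment.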

garden radish = assay: Experiment 5 foliage treatment: garden radish; conditions: foliage spray of wettable powder suspension, evaluated 4 weeks after treatment
Method in brief: as §3

paddy rice = assay: Experiment 4 flooded soil treatment: injury to paddy rice; conditions: 4 weeks after treatment
Method in brief: as §1

[5] = system: nobie (barnyardgrass, Echinochloa spp.); assay: Experiment 4 flooded soil treatment: nobie; conditions: 4 weeks after treatment
Method in brief: as §1

[6] = system: tamagayatsuri (small-flowered umbrellaplant, Cyperus difformis); assay: Experiment 4 flooded soil treatment: tamagayatsuri; conditions: 4 weeks after treatment
Method in brief: as §1

[7] = system: noasagao (blue morningglory, Ipomoea indica); assay: Experiment 6 foliage treatment: noasagao; conditions: foliage spray of wettable powder suspension, evaluated 4 weeks after treatment
Procedure: as §2

[8] = system: cockspur (Panicum crus-galli); assay: Experiment 5 foliage treatment: cockspur; conditions: foliage spray of wettable powder suspension, evaluated 4 weeks after treatment
Method in brief: as §3

[9] = system: mehishiba (henry crabgrass, Digitaria cliaris); assay: Experiment 5 foliage treatment: mehishiba; conditions: foliage spray of wettable powder suspension, evaluated 4 weeks after treatment
Method in brief: as §3

[10] = system: ichibi (velvetleaf, Abutilon theophrasti); assay: Experiment 6 foliage treatment: ichibi; conditions: foliage spray of wettable powder suspension, evaluated 4 weeks after treatment
Procedure: as §2

rice = assay: Experiment 5 foliage treatment: rice; conditions: foliage spray of wettable powder suspension, evaluated 4 weeks after treatment
Method in brief: as §3

Row | Molecule | Herbicidal Effect broad-leaved weed (broad-leaved weeds; 3.13 g/10a) | Herbicidal Effect broad-leaved weed (broad-leaved weeds; 6.25 g/10a) | Herbicidal Effect onamomi ([1]; 4 g/10a) | Herbicidal Effect onamomi ([1]; 8 g/10a) | Herbicidal Effect hotarui ([2]; 3.13 g/10a) | Herbicidal Effect hotarui ([2]; 6.25 g/10a) | Herbicidal Effect ooinutade ([3]; 4 g/10a) | Herbicidal Effect ooinutade ([3]; 8 g/10a) | Herbicidal Effect aobiyu ([4]; 40 g/10a) | Herbicidal Effect aobiyu ([4]; 80 g/10a) | Herbicidal Effect garden radish (garden radish; 40 g/10a) | Herbicidal Effect garden radish (garden radish; 80 g/10a) | Injury of Paddy (paddy rice; 3.13 g/10a) | Injury of Paddy (paddy rice; 6.25 g/10a) | Herbicidal Effect nobie ([5]; 3.13 g/10a) | Herbicidal Effect nobie ([5]; 6.25 g/10a) | Herbicidal Effect tamagayatsuri ([6]; 3.13 g/10a) | Herbicidal Effect tamagayatsuri ([6]; 6.25 g/10a) | Herbicidal Effect noasagao ([7]; 4 g/10a) | Herbicidal Effect noasagao ([7]; 8 g/10a) | other results
1 | C#CC(C)Oc1cc(N(C(=O)C2=C(C(=O)OC)CCCC2)C(=O)c2cncc(C(=O)OC)c2)c(F)cc1Cl (centres unmarked) [compound 67] | 5 | 5 | 4 | 5 | 4 | 5 | 5 | 5 | 5 | 5 | 5 | 5 | 0.5 | 0.5 | 5 | 5 | 5 | 5 | 5 | 5 | Herbicidal Effect cockspur ([8]; 40 g/10a): 1; Herbicidal Effect cockspur ([8]; 80 g/10a): 1; Herbicidal Effect mehishiba ([9]; 40 g/10a): 1; Herbicidal Effect mehishiba ([9]; 80 g/10a): 1; Herbicidal Effect ichibi ([10]; 4 g/10a): 5; Herbicidal Effect ichibi ([10]; 8 g/10a): 5; Herbicidal Effect rice (rice; 40 g/10a): 1; Herbicidal Effect rice (rice; 80 g/10a): 1
2 | N-[4-chloro-2-fluoro-5-(1-methylpropargyloxy)phenyl]-N-nicotinyl-3,4,5,6-tetrahydrophthalamic acid methyl ester [compound 57] | 5 | 5 | 4 | 4 | 4.5 | 4.5 | 5 | 5 | 5 | 5 | 5 | 5 | 0 | 0.5 | 5 | 5 | 5 | 5 | 4 | 4 | Herbicidal Effect cockspur ([8]; 40 g/10a): 1; Herbicidal Effect cockspur ([8]; 80 g/10a): 3; Herbicidal Effect mehishiba ([9]; 40 g/10a): 4; Herbicidal Effect mehishiba ([9]; 80 g/10a): 4; Herbicidal Effect ichibi ([10]; 4 g/10a): 5; Herbicidal Effect ichibi ([10]; 8 g/10a): 5; Herbicidal Effect rice (rice; 40 g/10a): 1; Herbicidal Effect rice (rice; 80 g/10a): 1
